How the values were obtained:
DLD-1 cells = assay: MTS assay, inhibition of cell growth; format: cell-based; conditions: Homo sapiens, compound at 10 μM, 72 hours
Method: (§1) MDA-MB-231, DLD-1, Kato III NCI-H1299, PACA-2 cells, were maintained at 37° C., 5% CO2 in DMEM media supplemented with 10% fetal bovine serum, penicillin/streptomycin and fungizone (Invitrogen). Cells were seeded into 96-well tissue culture plates at 3000 per well and cultured at 37° C. for 18 hours. Test compounds were dissolved and diluted to 300× in DMSO then further diluted 1:40 in DMEM before addition to cells (1:7.5 dilution). Cells were incubated with test compounds for 72 hours followed by incubation with tetrazolium compound (3-(4,5-dimethylthiazol-2-yl)-5-(3-carboxymethoxyphenyl)-2-(4-sulfophenyl)-2H-tetrazolium, inner salt; MTS) and the electron coupling reagent, phenazine methosulfate (PMS) for 4 hours. […] The ability of compounds to inhibit cell growth in this assay is correlated with the reduction of dehydrogenase enzyme activity found in metabolically active cells. The measurement of the absorbance of the formazan was assessed using an ENVISION™ (Perkin Elmer) microplate reader at 492 nm.

Kato III cells = assay: MTS assay, inhibition of cell growth; format: cell-based; conditions: Homo sapiens, compound at 10 μM, 72 hours
Method: as §1

MDA-MB-231 cells = assay: MTS assay, inhibition of cell growth; format: cell-based; conditions: Homo sapiens, compound at 10 μM, 72 hours
Method: as §1

NCI-H1299 cells = assay: MTS assay, inhibition of cell growth; format: cell-based; conditions: Homo sapiens, compound at 10 μM, 72 hours
Method: as §1

PACA-2 cells = assay: MTS assay, inhibition of cell growth; format: cell-based; conditions: compound at 10 μM, 72 hours
Method: as §1

Row | Compound | inhibition at 10 µM (DLD-1 cells) [%] | inhibition at 10 µM (Kato III cells) [%] | inhibition at 10 µM (MDA-MB-231 cells) [%] | inhibition at 10 µM (NCI-H1299 cells) [%] | inhibition at 10 µM (PACA-2 cells) [%] | melting point [°C]
1 | O=S(=O)(Cc1noc2ccccc12)NC1CCc2c(cnc3[nH]ncc23)C1 (centres unmarked) [1-(1,2-benzisoxazol-3-yl)-N-(6,7,8,9-tetrahydro-3H-pyrazolo[3,4-c]isoquinolin-7-yl)methanesulfonamide] | 50 to 74 | 75 to 100 | 25 to 49 | 25 to 49 | 75 to 100 | 
2 | O=C(Nc1cccc2ccccc12)NC1CCc2c(cnc3[nH]ncc23)C1 (centres unmarked) [1-(1-naphthyl)-3-(6,7,8,9-tetrahydro-3H-pyrazolo[3,4-c]isoquinolin-7-yl)urea] | 75 to 100 | 75 to 100 | 50 to 74 | 25 to 49 | 25 to 49 | 
3 | O=C(NCCc1ccccc1)NC1CCc2c(cnc3[nH]ncc23)C1 (centres unmarked) [1-(2-phenylethyl)-3-(6,7,8,9-tetrahydro-3H-pyrazolo[3,4-c]isoquinolin-7-yl)urea] | 75 to 100 | 75 to 100 | 75 to 100 | 75 to 100 | 75 to 100 | 
4 | O=C(Nc1cccc(Cl)c1F)NC1CCc2c(cnc3[nH]ncc23)C1 (centres unmarked) [1-(3-chloro-2-fluorophenyl)-3-(6,7,8,9-tetrahydro-3H-pyrazolo[3,4-c]isoquinolin-7-yl)urea] | 75 to 100 | 75 to 100 | 75 to 100 | 75 to 100 | 75 to 100 | 
5 | Cc1ccc(-c2n[nH]c3ncc4c(c23)CCN(C(=O)Nc2ccccc2)C4)o1 [1-(5-methylfuran-2-yl)-N-phenyl-3,6,8,9-tetrahydro-7H-pyrazolo[3,4-c][2,7]naphthyridine-7-carboxamide] | 75 to 100 | 75 to 100 | 75 to 100 | 75 to 100 | 75 to 100 | 
6 | O=C(C(c1ccccc1)N1CCNCC1)N1CCc2c(cnc3[nH]nc(Br)c23)C1 (centres unmarked) [1-bromo-7-[phenyl(piperperazin-1-yl)acetyl]-6,7,8,9-tetrahydro-3H-pyrazolo[3,4-c][2,7]naphthyridine] | 75 to 100 | 75 to 100 | 75 to 100 | 75 to 100 | 75 to 100 | 
7 | N[C@H](C(=O)N1CCc2c(cnc3[nH]ncc23)C1)c1ccccc1 [(1S)-2-oxo-1-phenyl-2-(3,6,8,9-tetrahydro-7H-pyrazolo[3,4-c][2,7]naphthyridin-7-yl)ethanamine] | < 24 |  | 50 to 74 |  | 50 to 74 | 
8 | Cc1cncc(Oc2cccc(NC(=O)N3CCc4c(cnc5[nH]nc(Br)c45)C3)c2)n1 [Example 403, 1-bromo-N-{3-[(6-methylpyrazin-2-yl)oxy]phenyl}-3,6,8,9-tetrahydro-7H-pyrazolo[3,4-c][2,7]naphthyridine-7-carboxamide] |  |  |  |  |  | 221 to 223
9 | Cc1nc(-c2cccc(NC(=O)N3CCc4c(cnc5[nH]nc(Br)c45)C3)c2)no1 [Example 404, 1-bromo-N-[3-(5-methyl-1,2,4-oxadiazol-3-yl)phenyl]-3,6,8,9-tetrahydro-7H-pyrazolo[3,4-c][2,7]naphthyridine-7-carboxamide] |  |  |  |  |  | > 152
10 | Cc1nc(-c2cccc(NC(=O)N3CCc4c(cnc5[nH]ncc45)C3)c2)no1 [Example 406, N-(3-(5-methyl-1,2,4-oxadiazol-3-yl)phenyl)-8,9-dihydro-3H-pyrazolo[3,4-c][2,7]naphthyridine-7(6H)-carboxamide] |  |  |  |  |  | > 140
11 | O=C(Nc1ccccc1)N1CCc2c(cnc3[nH]nc(-c4ccccc4)c23)C1 [Example 407, N,1-diphenyl-8,9-dihydro-3H-pyrazolo[3,4-c][2,7]naphthyridine-7(6H)-carboxamide] |  |  |  |  |  | 150 to 170
12 | O=C(Nc1cccc(Cc2ccccc2)c1)N1CCc2c(cnc3[nH]ncc23)C1 [Example 408, N-(3-benzylphenyl)-8,9-dihydro-3H-pyrazolo[3,4-c][2,7]naphthyridine-7(6H)-carboxamide] |  |  |  |  |  | 175 to 178
13 | COc1ccc(-c2ccccc2)cc1NC(=O)N1CCc2c(cnc3[nH]ncc23)C1 [Example 409, N-(4-methoxybiphenyl-3-yl)-8,9-dihydro-3H-pyrazolo[3,4-c][2,7]naphthyridine-7(6H)-carboxamide] |  |  |  |  |  | 148 to 151
14 | O=C(c1ccccc1)N1CCc2c(cnc3[nH]ncc23)C1 [Example 427, (8,9-dihydro-3H-pyrazolo[3,4-c][2,7]naphthyridin-7(6H)-yl)(phenyl)methanone] |  |  |  |  |  | 198 to 200
15 | O=C(NC1CCc2c(cnc3[nH]ncc23)C1)c1ccccc1 (centres unmarked) [Example 430, N-(6,7,8,9-tetrahydro-3H-pyrazolo[3,4-c]isoquinolin-7-yl)benzamide] |  |  |  |  |  | > 300
16 | O=C(c1ccccc1)N1CCc2cnc3[nH]ncc3c2-c2ccccc21 [Example 431, 8-(phenylcarbonyl)-3,6,7,8-tetrahydropyrazolo[4′,3′:5,6]pyrido[3,4-d][1]benzazepine] |  |  |  |  |  | > 150

Row | Compound | inhibition at 10 µM (DLD-1 cells) [%] | inhibition at 10 µM (Kato III cells) [%] | inhibition at 10 µM (MDA-MB-231 cells) [%] | inhibition at 10 µM (NCI-H1299 cells) [%] | inhibition at 10 µM (PACA-2 cells) [%] | melting point [°C]
17 | O=C(O)C(c1ccccc1)N1CCc2c(cnc3[nH]ncc23)C1 (centres unmarked) [Example 433, 2-(8,9-dihydro-3H-pyrazolo[3,4-c][2,7]naphthyridin-7(6H)-yl)-2-phenylacetic acid] |  |  |  |  |  | 237 to 240
18 | COc1ccc(Cn2ncc3c4c(cnc32)CN(c2ncnc3[nH]nc(C(=O)c5ccccc5)c23)CC4)cc1 [Example 434, (4-(3-(4-methoxybenzyl)-8,9-dihydro-3H-pyrazolo[3,4-c][2,7]naphthyridin-7(6H)-yl)-1H-pyrazolo[3,4-d]pyrimidin-3-yl)(phenyl)methanone] |  |  |  |  |  | > 145
19 | O=C(c1ccccc1)c1c[nH]c2ncnc(N3CCc4c(cnc5[nH]nc(Br)c45)C3)c12 [Example 436] |  |  |  |  |  | 300 to 302
20 | COc1ccc(Cn2ncc3c4c(cnc32)CN(C(=N)N)CC4)cc1 [Example 474, 3-(4-methoxybenzyl)-8,9-dihydro-3H-pyrazolo[3,4-c][2,7]naphthyridine-7(6H)-carboximidamide] |  |  |  |  |  | 255 to 256
21 | O=C(Cc1ccccc1)N1CCc2c(cnc3[nH]ncc23)C1 [Example 476, 1-(8,9-dihydro-3H-pyrazolo[3,4-c][2,7]naphthyridin-7(6H)-yl)-2-phenylethanone] |  |  |  |  |  | 164 to 166
22 | O=C(NC[C@@H]1CCCO1)c1cccc(NC(=O)N2CCc3c(cnc4[nH]ncc34)C2)c1 [N-(3-{[(2S)-tetrahydrofuran-2-ylmethyl]carbamoyl}phenyl)-3,6,8,9-tetrahydro-7H-pyrazolo[3,4-c][2,7]naphthyridine-7-carboxamide] | 75 to 100 | 75 to 100 | 75 to 100 |  | 75 to 100 | 
23 | CC(=O)Nc1cccc(-c2n[nH]c3ncc4c(c23)CCNC4)c1 [N-[3-(6,7,8,9-tetrahydro-3H-pyrazolo[3,4-c][2,7]naphthyridin-1-yl)phenyl]acetamide] | 50 to 74 | 75 to 100 | 25 to 49 |  |  | 
24 | c1ccc(CNC2CCc3c(cnc4[nH]ncc34)C2)cc1 (centres unmarked) [N-benzyl-6,7,8,9-tetrahydro-3H-pyrazolo[3,4-c]isoquinolin-7-amine] | < 24 |  | < 24 |  | < 24 | 
25 | c1ccc(C2Cc3cnc4[nH]ncc4c3-c3ccccc32)cc1 (centres unmarked) [drawing 555, 7-phenyl-6,7-dihydro-3H-benzo[f]pyrazolo[3,4-c]isoquinoline] | 25 to 49 | 25 to 49 | < 24 |  | < 24 | 
26 | Clc1ccc(C2Cc3cnc4[nH]ncc4c3-c3ccccc32)c(Cl)c1 (centres unmarked) [drawing 557, 7-(2,4-dichlorophenyl)-6,7-dihydro-3H-benzo[f]pyrazolo[3,4-c]isoquinoline] | 50 to 74 | 50 to 74 |  | 25 to 49 | < 24 | 
27 | O=C(Nc1ccccc1)NC1CCc2c(cnc3[nH]ncc23)C1 (centres unmarked) [drawing 560, 1-phenyl-3-(6,7,8,9-tetrahydro-3H-pyrazolo[3,4-c]isoquinolin-7-yl)urea] | < 24 |  |  |  | < 24 | 
28 | Cc1cc(C)c2c(c1)-c1c(cnc3[nH]ncc13)CC2 [drawing 561, 8,10-dimethyl-6,7-dihydro-3H-benzo[f]pyrazolo[3,4-c]isoquinoline] | 75 to 100 | 25 to 49 | 25 to 49 |  | < 24 | 
29 | COc1ccc2c(c1)-c1c(cnc3[nH]ncc13)CC2 [drawing 562, 10-methoxy-6,7-dihydro-3H-benzo[f]pyrazolo[3,4-c]isoquinoline] | < 24 | 25 to 49 |  |  | < 24 | 
30 | Cc1nc(-c2cccc(NC(=O)N3CCc4c(cnc5[nH]nc(Br)c45)C3)c2)no1 [drawing 581, 1-bromo-N-[3-(5-methyl-1,2,4-oxadiazol-3-yl)phenyl]-3,6,8,9-tetrahydro-7H-pyrazolo[3,4-c][2,7]naphthyridine-7-carboxamide] |  | < 24 |  |  | < 24 | 
31 | O=C(Nc1ccccc1)C1CCc2c(cnc3[nH]ncc23)C1 (centres unmarked) [drawing 584, N-phenyl-6,7,8,9-tetrahydro-3H-pyrazolo[3,4-c]isoquinoline-7-carboxamide] | 50 to 74 | 75 to 100 | < 24 |  | < 24 | 
